Drawing on ChEMBL document CHEMBL2439951, “Discovery of N-(benzo[1,2,3]triazol-1-yl)-N-(benzyl)acetamido)phenyl) carboxamides as severe acute respiratory syndrome coronavirus (SARS-CoV) 3CLpro inhibitors: identification of ML300 and noncovalent nanomolar inhibitors with an induced-fit binding” (Bioorg Med Chem Lett, 2013), this text covers INH, IC50 and inhibition for seven molecules.

Each structure is given as a SMILES string. A value given as a limit tells only on which side of the number the result lay.

One data set addresses Cytochrome P450 2D6 (Homo sapiens, UniProt P10635). As to the kind of experiment: Inhibition of CYP2D6 (unknown origin). The class given is ADME.
A further data set deals with T1, Cytochrome P450 1A2 (Homo sapiens, UniProt P05177).
T1 sequence (P05177 whole entry): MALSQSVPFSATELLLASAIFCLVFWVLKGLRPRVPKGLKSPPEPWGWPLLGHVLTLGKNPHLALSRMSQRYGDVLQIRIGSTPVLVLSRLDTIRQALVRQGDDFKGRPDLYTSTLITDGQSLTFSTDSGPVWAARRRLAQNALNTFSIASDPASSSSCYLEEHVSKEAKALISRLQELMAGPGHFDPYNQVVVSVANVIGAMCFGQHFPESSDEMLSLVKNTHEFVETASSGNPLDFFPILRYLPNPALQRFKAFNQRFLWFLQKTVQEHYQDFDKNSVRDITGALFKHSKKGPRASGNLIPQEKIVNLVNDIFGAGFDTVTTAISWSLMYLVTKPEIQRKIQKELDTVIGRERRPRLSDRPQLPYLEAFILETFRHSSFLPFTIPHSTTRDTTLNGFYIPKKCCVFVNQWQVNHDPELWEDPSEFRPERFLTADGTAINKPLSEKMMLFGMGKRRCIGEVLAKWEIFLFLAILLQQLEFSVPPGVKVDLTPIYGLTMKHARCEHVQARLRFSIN
As to the kind of experiment: Inhibition of CYP1A2 (unknown origin). The class given is ADME.

Another data set addresses Cytochrome P450 2C9 (Homo sapiens, UniProt P11712). As to the kind of experiment: Inhibition of CYP2C9 (unknown origin). The class given is ADME.
Another data set has as its target Replicase polyprotein 1a (Severe acute respiratory syndrome-related coronavirus, UniProt P0C6U8). As to the kind of experiment: Inhibition of SARS coronavirus 3CLpro.
Data set [1] in a line: Inhibition of SARS coronavirus PLpro. Also noted: species or system Severe acute respiratory syndrome-related coronavirus.
In data set [2] the target is Replicase polyprotein 1a (Severe acute respiratory syndrome-related coronavirus) (UniProt P0C6U8). Put plainly: Inhibition of SARS coronavirus 3CLpro at 100 uM.

Chain of Cytochrome P450 2C9 (P11712 whole entry): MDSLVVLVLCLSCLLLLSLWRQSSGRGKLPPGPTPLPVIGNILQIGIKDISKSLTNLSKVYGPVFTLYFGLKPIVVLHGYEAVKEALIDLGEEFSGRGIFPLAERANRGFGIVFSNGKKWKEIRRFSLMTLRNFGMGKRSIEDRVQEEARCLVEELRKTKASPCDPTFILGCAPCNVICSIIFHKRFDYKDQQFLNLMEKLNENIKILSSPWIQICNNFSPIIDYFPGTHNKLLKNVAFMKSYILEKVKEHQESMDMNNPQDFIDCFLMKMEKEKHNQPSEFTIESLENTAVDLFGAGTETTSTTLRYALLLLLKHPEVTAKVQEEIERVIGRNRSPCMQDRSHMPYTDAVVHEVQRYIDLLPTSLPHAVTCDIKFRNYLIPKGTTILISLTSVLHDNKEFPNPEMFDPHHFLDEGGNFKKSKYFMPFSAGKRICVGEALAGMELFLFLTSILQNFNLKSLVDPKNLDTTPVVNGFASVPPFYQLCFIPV
Chain of Cytochrome P450 2D6 (P10635 whole entry): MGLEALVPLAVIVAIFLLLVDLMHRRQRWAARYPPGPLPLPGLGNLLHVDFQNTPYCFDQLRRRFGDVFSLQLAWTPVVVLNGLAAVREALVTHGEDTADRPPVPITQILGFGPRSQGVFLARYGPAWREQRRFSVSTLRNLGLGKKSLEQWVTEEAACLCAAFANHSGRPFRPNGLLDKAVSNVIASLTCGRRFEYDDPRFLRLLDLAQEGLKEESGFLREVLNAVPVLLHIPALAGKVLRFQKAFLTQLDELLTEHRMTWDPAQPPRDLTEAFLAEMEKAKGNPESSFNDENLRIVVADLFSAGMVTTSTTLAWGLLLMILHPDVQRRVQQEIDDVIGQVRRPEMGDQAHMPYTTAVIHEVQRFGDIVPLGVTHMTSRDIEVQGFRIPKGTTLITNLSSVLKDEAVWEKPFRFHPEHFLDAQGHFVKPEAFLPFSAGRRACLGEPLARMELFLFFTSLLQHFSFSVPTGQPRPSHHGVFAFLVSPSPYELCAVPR

For `CC(C)(C)NC(=O)[C@@H](c1cccnc1)N(C(=O)c1ccco1)c1ccc(C(C)(C)C)cc1`, the results for the INH at Cytochrome P450 2D6, at Cytochrome P450 1A2 and at Cytochrome P450 2C9 were greater than 30 µM, greater than 30 µM and 9.1 µM, respectively.
For the molecule `O=C(Cn1nnc2ccccc21)N(Cc1ccsc1)c1ccc(-c2ccncc2)cc1`, on Replicase polyprotein 1a (read-out: IC50), the IC50 (usually the point on the concentration scale where inhibition reaches its midpoint) was found to be 2000 nM.
Consider `CC(C)COC(=O)Nc1ccc(N(C(=O)Cn2nnc3ccccc32)C(C(=O)NC(C)(C)C)c2ccsc2)cc1` (configuration not stated), for which the IC50 entry on Replicase polyprotein 1a was “Not Active”.
For the molecule `CCC(C)(C)NC(=O)[C@@H](c1ccn(C)c1)N(C(=O)Cn1nnc2ccccc21)c1ccc(NC(C)=O)cc1`, the IC50 in data set [1] is greater than 60000 nM; at Replicase polyprotein 1a (read-out: IC50), 6200 nM.
With `O=C(Nc1ccc(N(Cc2ccsc2)C(=O)Cn2nnc3ccccc32)cc1)C1CC1`, the INH was 8.4 µM on Cytochrome P450 2D6, 7.7 µM on Cytochrome P450 1A2 and 7.2 µM at Cytochrome P450 2C9.
Turning to `COc1ncccc1-c1ccc(N(Cc2ccsc2)C(=O)Cn2nnc3ccccc32)cc1`, the IC50 at Replicase polyprotein 1a (read-out: IC50) was found to be 700 nM.
`O=C(Nc1ccc(N(Cc2ccsc2)C(=O)Cn2nnc3ccccc32)cc1)c1ccccc1`: in data set [2], the inhibition (usually the share of the control response that was lost under treatment) came to 18%.
